According to patent publication US4273765A, “Amino sugar derivatives containing trehalose” (Hoffmann-La Roche Inc., priority 1978, dated 1981):

How the values were obtained:
[1] = system: hyperglycemia induced by cooked rice starch; assay: Inhibition of hyperglycemia induced by cooked rice starch, rats; type: in vivo; settings: p.o., dose causing after 20 minutes a 20 percent decrease of hyperglycemia, 2 g/kg cooked rice starch
Method: (§1) **ED20 is defined as the dose causing after 20 minutes a 20 percent
(§2) decrease of hyperglycemia induced by oral administration of 2 g/kg body
(§3) weight cooked rice starch.

[2] = system: Salmonella paratyphi B; settings: agar-dilution
[3] = system: Staphylococcus aureus MS9261; assay: Antimicrobial spectrum, agar-dilution method; type: cell-based
[4] = system: hyperglycemia (hyperinsulinemia) following an oral load of native starch; assay: Hyperglycemia (hyperinsulinemia) following an oral load of native starch; type: in vivo; settings: 20 min. after wheat starch
Method: (§4) [Plasma Glucose and insulin 20 min. after carbohydrate ± Trestatin (1.
g wheat starch/kg or 3.2 g sucrose/kg)]

[5] = system: E. coli CF17; assay: Antimicrobial spectrum, agar-dilution method; type: cell-based
[6] = system: hyperglycemia induced by cooked rice starch; assay: Inhibition of hyperglycemia induced by cooked rice starch, mice; type: in vivo; settings: p.o., dose causing after 20 minutes a 20 percent decrease of hyperglycemia, 2 g/kg cooked rice starch
Method: as §1, §2, §3

[7] = system: Pseudomonas aeruginosa IFO12689; assay: Antimicrobial spectrum, agar-dilution method; type: cell-based
[8] = system: Staphylococcus aureus FDA209P; assay: Antimicrobial spectrum, agar-dilution method; type: cell-based
[9] = system: Pseudomonas aeruginosa A3; assay: Antimicrobial spectrum, agar-dilution method; type: cell-based
[10] = system: Bordetella bronchiseptica Aichi 202; assay: Antimicrobial spectrum, agar-dilution method; type: cell-based; settings: Bordetella bronchiseptica Aichi 202, agar-dilution
[11] = system: Bacillus subtilis PCI 219; assay: Antimicrobial spectrum, agar-dilution method; type: cell-based; settings: Bacillus subtilis PCI 219, agar-dilution
[12] = system: Shigella flexneri; assay: Antimicrobial spectrum, agar-dilution method; type: cell-based
[13] = Solubility in solvents; type: physicochemical
From the text: (h) Solubility in solvents:

[14] = system: hyperglycemia following an oral load of sucrose; assay: Hyperglycemia following an oral load of sucrose; type: in vivo; settings: dose/kg 30.0 mg; 20 min. after 3.2 g sucrose/kg
Method: as §4
g wheat starch/kg or 3.2 g sucrose/kg)]

[15] = target: T1, porcine pancreatic α-amylase (Sus scrofa, UniProt P00690); assay: Porcine pancreatic α-amylase inhibitory activity (Bernfeld assay); type: biochemical; settings: IU = amount giving 50% inhibition of 2 units porcine pancreatic α-amylase, pH 6.9, 37° C.
T1 sequence (P00690 16-511): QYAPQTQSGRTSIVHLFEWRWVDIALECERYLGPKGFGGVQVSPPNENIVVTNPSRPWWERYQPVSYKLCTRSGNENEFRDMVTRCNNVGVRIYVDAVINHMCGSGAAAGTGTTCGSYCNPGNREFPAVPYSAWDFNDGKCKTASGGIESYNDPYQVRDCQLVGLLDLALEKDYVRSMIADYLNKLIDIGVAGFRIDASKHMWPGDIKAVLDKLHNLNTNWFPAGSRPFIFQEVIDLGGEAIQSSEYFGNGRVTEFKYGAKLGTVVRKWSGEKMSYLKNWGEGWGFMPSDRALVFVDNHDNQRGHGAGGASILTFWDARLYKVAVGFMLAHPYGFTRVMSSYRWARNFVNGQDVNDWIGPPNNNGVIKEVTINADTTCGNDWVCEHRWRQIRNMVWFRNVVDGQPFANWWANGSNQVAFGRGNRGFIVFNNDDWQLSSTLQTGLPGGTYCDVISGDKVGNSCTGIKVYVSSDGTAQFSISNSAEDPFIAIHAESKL
Method: 2 units* of porcine pancreatic α-amylase in 0.1 ml of 6.4 mM ammonium sulfate solution are added to 0.6 ml of 20 mM phosphate buffer (pH 6.9) containing 10 mM sodium chloride and different amounts of Trestatin. The mixture, after equilibration at 37° C. for 5 min. followed by the addition of 0.5 ml of 4% soluble starch solution, is incubated for 5 min. at 37° C. The reaction is terminated by the addition of 2 ml of dinitrosalicylic acid reagent prepared according to the method of P. Bernfeld. The mixture is heated on a boiling water bath for 5 min. and then diluted with 10 ml of water. Absorbance (A1) of the resulting colored solution is measured at 540 nm, and the inhibition of α-amylase activity can be calculated from the following equation: [formula] A0; absorbance without enzyme A2; absorbance without Trestatin
*1 unit of the α-amylase is the amount of enzyme which catalyzes under the above conditions without Trestatin the formation of reducing sugars equivalent to 1 μmol of maltose.
Each of said inhibitory activities was determined by the method mentioned above.

[16] = system: Staphylococcus aureus Smith; assay: Antimicrobial spectrum, agar-dilution method; type: cell-based
[17] = system: Klebsiella pneumoniae PCI602; assay: Antimicrobial spectrum, agar-dilution method; type: cell-based
[18] = system: Staphylococcus aureus MS3937; assay: Antimicrobial spectrum, agar-dilution method; type: cell-based
[19] = Titration (in water); type: physicochemical
[20] = system: Sarcina lutea ATCC 9341; assay: Antimicrobial spectrum, agar-dilution method; type: cell-based; settings: Sarcina lutea ATCC 9341, agar-dilution
[21] = system: Proteus rettgeri; assay: Antimicrobial spectrum, agar-dilution method; type: cell-based
[22] = system: E. coli NIHJ STf; assay: Antimicrobial spectrum, agar-dilution method; type: cell-based
[23] = system: Serratia marcescens IFO12648; assay: Antimicrobial spectrum, agar-dilution method; type: cell-based
[24] = system: Pseudomonas aeruginosa P2; assay: Antimicrobial spectrum, agar-dilution method; type: cell-based
[25] = system: Salmonella typhimurium IFO12529; assay: Antimicrobial spectrum, agar-dilution method; type: cell-based
[26] = system: Mycobacterium smegmatis ATCC607; assay: Antimicrobial spectrum, agar-dilution method; type: cell-based
[27] = system: E. coli CF41; assay: Antimicrobial spectrum, agar-dilution method; type: cell-based
[28] = system: Citrobacter; assay: Antimicrobial spectrum, agar-dilution method; type: cell-based
[29] = system: rats; assay: Acute toxicity, oral, rats; settings: 500 mg/kg administered to rats orally (65-700 times the effective dosage)
[30] = system: E. coli K-12 ML1630; assay: Antimicrobial spectrum, agar-dilution method; type: cell-based; settings: E. coli K-12 ML1630, agar-dilution
[31] = system: Proteus vulgaris OX19 ATCC6898; assay: Antimicrobial spectrum, agar-dilution method; type: cell-based
[32] = system: E. coli NIHJ; assay: Antimicrobial spectrum, agar-dilution method; type: cell-based
[33] = system: Candida albicans Yu1200; assay: Antimicrobial spectrum, agar-dilution method; type: cell-based
[34] = system: E. coli NIHJ SMf; assay: Antimicrobial spectrum, agar-dilution method; type: cell-based

SMILES: C[C@H]1O[C@H](O[C@@H]2[C@H](O)[C@H](O)[C@@H](O[C@@H]3[C@H](O)[C@@H](O)[C@@H](O[C@@H]4[C@H](O)[C@H](O)[C@@H](O[C@H]5O[C@@H](CO)[C@H](O)[C@H](O)[C@H]5O)O[C@@H]4CO)O[C@@H]3CO)O[C@H]2CO)[C@H](O)[C@@H](O)[C@@H]1N[C@H]1C=C(CO)[C@@H](O[C@H]2O[C@H](CO)[C@H](O[C@H]3O[C@H](C)[C@@H](N[C@H]4C=C(CO)[C@@H](O)[C@H](O)[C@H]4O)[C@H](O)[C@H]3O)[C@H](O)[C@H]2O)[C@H](O)[C@H]1O (stereo in doubt) [Trestatin A]
- ED20, inhibition of hyperglycemia induced by cooked rice starch [1]: 1.0 mg/kg
- Antimicrobial spectrum [2]: > 100 µg/mL
- Antimicrobial spectrum [3]: > 100 µg/mL
- Plasma glucose, starch - load ([4]; dose/kg 0.3 mg): 68% of carbohydrate primed controls
- Plasma insulin, starch - load ([4]; dose/kg 0.3 mg): 66% of carbohydrate primed controls
- Plasma glucose, starch - load ([4]; dose/kg 1.0 mg): 56% of carbohydrate primed controls
- Plasma insulin, starch - load ([4]; dose/kg 1.0 mg): 42% of carbohydrate primed controls
- Plasma glucose, starch - load ([4]; dose/kg 3.0 mg): 55% of carbohydrate primed controls
- Plasma insulin, starch - load ([4]; dose/kg 3.0 mg): 42% of carbohydrate primed controls
- Antimicrobial spectrum [5]: > 100 µg/mL
- ED20, inhibition of hyperglycemia induced by cooked rice starch [6]: 1.1 mg/kg
- Antimicrobial spectrum [7]: > 100 µg/mL
- Antimicrobial spectrum [8]: > 100 µg/mL
- Antimicrobial spectrum [9]: > 100 µg/mL
- Antimicrobial spectrum [10]: > 100 µg/mL
- Antimicrobial spectrum [11]: > 100 µg/mL
- Antimicrobial spectrum [12]: > 100 µg/mL
- Solubility in acetone ([13]; acetone): slightly soluble
- Solubility in chloroform ([13]; chloroform): insoluble
- Solubility in dimethylsulfoxide ([13]; dimethylsulfoxide): soluble
- Solubility in ethanol ([13]; ethanol): slightly soluble
- Solubility in ethyl acetate ([13]; ethyl acetate): insoluble
- Solubility in water ([13]; water): easily soluble
- Plasma glucose, sucrose - load [14]: 84% of carbohydrate primed controls
- Inhibitory activities [15]: 7.1 × 10^7 IU/g
- Antimicrobial spectrum [16]: > 100 µg/mL
- Antimicrobial spectrum [17]: > 100 µg/mL
- Antimicrobial spectrum [18]: > 100 µg/mL
- pKa' [19]: 5.0
- Antimicrobial spectrum [20]: > 100 µg/mL
- Antimicrobial spectrum [21]: > 100 µg/mL
- Antimicrobial spectrum [22]: > 100 µg/mL
- Antimicrobial spectrum [23]: > 100 µg/mL
- Antimicrobial spectrum [24]: > 100 µg/mL
- Antimicrobial spectrum [25]: > 100 µg/mL
- Antimicrobial spectrum [26]: > 100 µg/mL
- Antimicrobial spectrum [27]: > 100 µg/mL
- Antimicrobial spectrum [28]: > 100 µg/mL
- Acute toxicity [29]: not observed
- Antimicrobial spectrum [30]: > 100 µg/mL
- Antimicrobial spectrum [31]: > 100 µg/mL
- Antimicrobial spectrum [32]: > 100 µg/mL
- Antimicrobial spectrum [33]: > 100 µg/mL
- Antimicrobial spectrum [34]: > 100 µg/mL
